US20190142800A1, “SYNERGISTIC ANTIFUNGAL COMPOSITIONS AND METHODS THEREOF” (VYOME THERAPEUTICS LIMITED, priority 2016, published 2019)

Test system: Trichophyton rubrum (ATCC-28188)
Test: Checkerboard assay of fatty acid/ester with antifungals on Trichophyton rubrum (ATCC 28188)
Type: cell-based
Parameters: key to FIC index: FIC index = sum of FICs; FIC = agent conc in well / agent MIC
Conditions: for Agent MIC: agent alone; for MIC: Trichophyton rubrum, ATCC28188, agent alone
Method: The synergy is measured by determining the fractional inhibitory concentration (FIC) value of the combination. This experimental set up, called checkerboard method, allows measurement of a desired effect (inhibition of fungal growth in this case) at different combinations of various concentrations of the two agents (antifungal agent and fatty acid/ester). […] No agent is added to the penultimate column on the right and the bottom row. The final column on the right is used for growth control (only inoculum in broth) and sterility control (broth alone, no inoculum). […] FIC value for each agent in a particular well of the checkerboard layout was calculated by dividing the agent concentration in that well by the established MIC value of the agent against the test organism (Hsieh et al., Synergy assessed by checkerboard: A critical Analysis, Diagn. Microbiol. Infect Dis. (1993) 16:343-349). FIC values for both agents in a particular well were calculated in this way followed by determination of the FIC index (sum of the FICs of each drug in the concerned well). […] Agents Chemother. (2010) 54(2): 602-609].
Using the checkerboard layout experimental setup described above (FIG. 1A), various medium-chain fatty acids were tested for their ability to potentiate the activity of a known antifungal agent. Concentrations above and below the MIC of each test agent were tested using serial dilution. The same procedure was expanded to test combinations of various medium-chain fatty acids C-1 to C-14 (such caprylic acid, undecylenic acid and lauric acid) and esters thereof, with antifungal agents from various classes including azoles, allylamines, benzylamines, zinc pyrithione and piroctone olamine against both susceptible and resistant Trichophyton spp. (filamentous fungus) and Candida spp. (yeast).
Potentiation of the activity of antimycotic agents using ester derivatives of medium chain fatty acids was tested in a standard, well accepted in vitro assay system to check for synergy. This experimental set up, called checkerboard method, allows measurement of a desired effect (inhibition of fungal growth in this case) at different combinations of various concentrations of two agents. A chosen medium chain fatty acid (C-1 to C-14) or its ester derivative was tested for its ability to potentiate the activity of a known antifungal agent (various classes) using the checkerboard layout. Various concentrations above and below the MIC of each test agent were tested using serial dilution in Sabouraud dextrose broth. […] FIC value for a drug in a particular well of the checkerboard layout is calculated by dividing the drug concentration in that well by the established MIC value of the drug against the test organism (Hsieh et al., Synergy assessed by checkerboard: A critical Analysis, Diagn. Microbiol. Infect Dis. (1993) 16:343-349). FIC values for both test agents in a particular well are calculated in this way followed by determination of the FIC index (sum of the FICs of each drug in the concerned well).

[1] = Table 2, propylene glycol monocaprylate series
[2] = Table 4, undecylenic acid (C11) series
[3] = Table 6, propylene glycol monolaurate series
[4] = agent's MIC in combination antifungal + propylene glycol monocaprylate (partner: other agent of same combination no.)
[5] = agent's MIC in combination antifungal + propylene glycol monolaurate (partner: other agent of same combination no.)
[6] = agent's MIC in combination antifungal + undecylenic acid (partner: other agent of same combination no.)
[7] = antifungal in combination with lauric acid
[8] = antifungal in combination with propylene glycol monocaprylate
[9] = antifungal in combination with propylene glycol monolaurate
[10] = antifungal in combination with undecylenic acid
[11] = combination antifungal + propylene glycol monocaprylate
[12] = combination antifungal + propylene glycol monolaurate
[13] = combination antifungal + undecylenic acid
[14] = Table 3, glyceryl monocaprylate series
[15] = agent's MIC in combination antifungal + caprylic acid (partner: other agent of same combination no.)
[16] = agent's MIC in combination antifungal + glyceryl monocaprylate (partner: other agent of same combination no.)
[17] = antifungal in combination with caprylic acid
[18] = antifungal in combination with glyceryl monocaprylate
[19] = combination antifungal + caprylic acid
[20] = combination antifungal + glyceryl monocaprylate

Compound	Agent MIC [1] [µg/mL]	Combination MIC [4] [µg/mL]	Combination MIC [5] [µg/mL]	Combination MIC [6] [µg/mL]	Combination MIC [15] [µg/mL]	Combination MIC [16] [µg/mL]	FIC index [8]	Interaction [8]	FIC index [9]	Interaction [9]	FIC index [10]	Interaction [10]	FIC [11]	FIC [12]	FIC index [17]	Interaction [17]	FIC index [18]	Interaction [18]	FIC [19]	FIC [20]	also measured
C[C@@H]1[C@H](O)[C@@H](C)/C=C/C=C/C=C/C=C/C=C/C=C/C=C/[C@H](O[C@@H]2O[C@H](C)[C@@H](O)[C@H](N)[C@@H]2O)C[C@@H]2O[C@](O)(C[C@@H](O)C[C@@H](O)[C@H](O)CC[C@@H](O)C[C@@H](O)CC(=O)O[C@H]1C)C[C@H](O)[C@H]2C(=O)O [Amphotericin B]	0.5	0.125	0.125	0.06			0.5	Synergistic (Combinations that gave FIC indices less than 1 were designated “synergistic”)	0.5	Synergistic (Combinations that gave FIC indices less than 1 were designated “synergistic”)	0.62	Synergistic (Combinations that gave FIC indices less than 1 were designated “synergistic”)	0.25	0.25							Agent MIC [2]: 0.5 µg/mL; Agent MIC (Table 5, lauric acid (C12) series): 0.5 µg/mL; Agent MIC [3]: 0.5 µg/mL; Combination MIC (agent's MIC in combination antifungal + lauric acid (partner: other agent of same combination no.)): 0.125 µg/mL; FIC index [7]: 0.75; Interaction [7]: Synergistic (Combinations that gave FIC indices less than 1 were designated “synergistic”); FIC (combination antifungal + lauric acid): 0.25; FIC [13]: 0.12
CC[C@H](C)C[C@H](C)CCCCCCCCC(=O)N[C@H]1C[C@@H](O)[C@@H](NCCN)NC(=O)[C@@H]2[C@@H](O)CCN2C(=O)[C@H]([C@H](O)CCN)NC(=O)[C@H]([C@H](O)[C@@H](O)c2ccc(O)cc2)NC(=O)[C@@H]2C[C@@H](O)CN2C(=O)[C@H]([C@@H](C)O)NC1=O [Caspofungin]		0.125	0.125	16	16	2	0.252	Synergistic (Combinations that gave FIC indices less than 1 were designated “synergistic”)	0.502	Synergistic (Combinations that gave FIC indices less than 1 were designated “synergistic”)	0.5	Synergistic (Combinations that gave FIC indices less than 1 were designated “synergistic”)	0.002	0.002	0.75	Synergistic (Combinations that gave FIC indices less than 1 were designated “synergistic”)	0.531	Synergistic (Combinations that gave FIC indices less than 1 were designated “synergistic”)	0.25	0.031	MIC (Table 1, caprylic acid series): 64 µg/mL; MIC [1]: 64 µg/mL; MIC [14]: 64 µg/mL; MIC [2]: 64 µg/mL; MIC [3]: 64 µg/mL; FIC [13]: 0.25
Zinc pyrithione	3.125				0.195	0.195	0.75	Synergistic (Combinations that gave FIC indices less than 1 were designated “synergistic”)							0.19	Synergistic (Combinations that gave FIC indices less than 1 were designated “synergistic”)	0.3125	Synergistic (Combinations that gave FIC indices less than 1 were designated “synergistic”)	0.06	0.0625	Agent MIC (Table 1, caprylic acid series): 3.125 µg/mL; Agent MIC [14]: 3.125 µg/mL

Second part, led by results:

Agent MIC [1] [µg/mL]	Combination MIC [4] [µg/mL]	Combination MIC [5] [µg/mL]	Combination MIC [6] [µg/mL]	Combination MIC [15] [µg/mL]	Combination MIC [16] [µg/mL]	Compound	FIC index [8]	Interaction [8]	FIC index [9]	Interaction [9]	FIC index [10]	Interaction [10]	FIC [11]	FIC [12]	FIC index [17]	Interaction [17]	FIC index [18]	Interaction [18]	FIC [19]	FIC [20]	also measured
	0.06			0.5	0.03	Cc1cc(C2CCCCC2)n(O)c(=O)c1 [Ciclopirox]	0.503	Synergistic (Combinations that gave FIC indices less than 1 were designated “synergistic”)					0.03		0.75	Synergistic (Combinations that gave FIC indices less than 1 were designated “synergistic”)	0.501	Synergistic (Combinations that gave FIC indices less than 1 were designated “synergistic”)	0.25	0.015	MIC (Table 1, caprylic acid series): 2 µg/mL; MIC [1]: 2 µg/mL; MIC [14]: 2 µg/mL
2.5				2	2	Cc1cc(CC(C)CC(C)(C)C)n(O)c(=O)c1.NCCO (stereo not shown) [Piroctone olamine]		Synergistic (Combinations that gave FIC indices less than 1 were designated “synergistic”)							0.75	Synergistic (Combinations that gave FIC indices less than 1 were designated “synergistic”)	0.562	Synergistic (Combinations that gave FIC indices less than 1 were designated “synergistic”)	0.5	0.5	Agent MIC (Table 1, caprylic acid series): 4 µg/mL; Agent MIC [14]: 4 µg/mL
